For four compounds, Activity results are on record in ChEMBL document CHEMBL3044993, “Structural confirmation of 15-norlubiminol and 15-norepilubiminol, isolated from Solanum aethiopicum, by chemical conversion from lubimin and epilubimin, and their antifungal activity” (2001).

Test [1] has as its system Verticillium dahliae. Nature of the test: Antifungal activity against Verticillium dahliae assessed as spore germination rate at 100 ppm relative to untreated control. The format is functional.
Test [2] has as its system Fusarium oxysporum f. sp. melongenae. Nature of the test: Antifungal activity against Fusarium oxysporum f. sp. melongenae assessed as spore germination rate at 100 ppm relative to untreated control. The format is functional.

For `C=C(C)[C@@H]1CC[C@]2(C1)[C@H](C)C[C@H](O)C[C@H]2O` [15-NOREPILUBIMINOL], the values for the Activity in test [1] and in test [2] were 57% and 113%, respectively.

On to `C=C(C)[C@@H]1CC[C@]2(C1)[C@H](C)C[C@H](O)C[C@@H]2O` [15-NORLIBIMINOL], for which the Activity in test [1] was 52%; in test [2] it was 114%.

For `C=C(C)[C@@H]1CC[C@]2(C1)[C@H](C)C[C@H](O)C[C@H]2C=O` [EPILUBIMIN], the figures for the Activity in test [1] and in test [2] were 54% and 30%, respectively.

On to `C=C(C)[C@@H]1CC[C@]2(C1)[C@H](C)C[C@H](O)C[C@@H]2C=O` [LUBIMIN], for which the Activity in test [1] was determined as 42%; in test [2] it was 5%.
